Experimental data from article PMC11945486, “TAS1R2/TAS1R3 Single-Nucleotide Polymorphisms Affect Sweet Taste Receptor Activation by Sweeteners: The SWEET Project” (Nutrients, 2025).
Blank lines part the entries; values can stand above or below the molecule they belong to. No end group written: not given here.

Molecular target: T1, human TAS1R2-R838K/TAS1R3-WT (Homo sapiens, UniProt Q7RTX0+Q8TE23, R838K)
T1 construct: expressed in transfected cells; host or cells: HEK293T-Gα16gust44
T1 sequence (Q8TE23 20-839 R838K): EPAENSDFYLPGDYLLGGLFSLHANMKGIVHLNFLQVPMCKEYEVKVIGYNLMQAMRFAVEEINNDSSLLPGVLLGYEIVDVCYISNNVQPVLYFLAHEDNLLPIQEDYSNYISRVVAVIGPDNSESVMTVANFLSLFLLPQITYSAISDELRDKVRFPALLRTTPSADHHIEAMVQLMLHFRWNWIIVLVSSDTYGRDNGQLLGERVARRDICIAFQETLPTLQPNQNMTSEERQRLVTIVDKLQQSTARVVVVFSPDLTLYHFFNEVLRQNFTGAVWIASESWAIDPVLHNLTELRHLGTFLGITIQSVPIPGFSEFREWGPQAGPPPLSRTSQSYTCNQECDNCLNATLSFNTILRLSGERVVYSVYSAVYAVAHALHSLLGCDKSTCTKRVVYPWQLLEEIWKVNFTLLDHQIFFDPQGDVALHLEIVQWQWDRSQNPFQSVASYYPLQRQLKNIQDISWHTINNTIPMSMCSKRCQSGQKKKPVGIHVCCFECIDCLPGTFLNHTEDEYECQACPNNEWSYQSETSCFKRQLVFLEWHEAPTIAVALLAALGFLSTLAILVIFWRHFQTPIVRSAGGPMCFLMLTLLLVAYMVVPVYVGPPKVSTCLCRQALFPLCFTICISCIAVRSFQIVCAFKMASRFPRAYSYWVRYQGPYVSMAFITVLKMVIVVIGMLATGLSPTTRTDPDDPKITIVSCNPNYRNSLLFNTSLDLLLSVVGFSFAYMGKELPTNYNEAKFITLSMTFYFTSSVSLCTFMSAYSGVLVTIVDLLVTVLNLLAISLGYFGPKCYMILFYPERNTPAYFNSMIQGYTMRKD
T1 sequence (Q7RTX0 21-852): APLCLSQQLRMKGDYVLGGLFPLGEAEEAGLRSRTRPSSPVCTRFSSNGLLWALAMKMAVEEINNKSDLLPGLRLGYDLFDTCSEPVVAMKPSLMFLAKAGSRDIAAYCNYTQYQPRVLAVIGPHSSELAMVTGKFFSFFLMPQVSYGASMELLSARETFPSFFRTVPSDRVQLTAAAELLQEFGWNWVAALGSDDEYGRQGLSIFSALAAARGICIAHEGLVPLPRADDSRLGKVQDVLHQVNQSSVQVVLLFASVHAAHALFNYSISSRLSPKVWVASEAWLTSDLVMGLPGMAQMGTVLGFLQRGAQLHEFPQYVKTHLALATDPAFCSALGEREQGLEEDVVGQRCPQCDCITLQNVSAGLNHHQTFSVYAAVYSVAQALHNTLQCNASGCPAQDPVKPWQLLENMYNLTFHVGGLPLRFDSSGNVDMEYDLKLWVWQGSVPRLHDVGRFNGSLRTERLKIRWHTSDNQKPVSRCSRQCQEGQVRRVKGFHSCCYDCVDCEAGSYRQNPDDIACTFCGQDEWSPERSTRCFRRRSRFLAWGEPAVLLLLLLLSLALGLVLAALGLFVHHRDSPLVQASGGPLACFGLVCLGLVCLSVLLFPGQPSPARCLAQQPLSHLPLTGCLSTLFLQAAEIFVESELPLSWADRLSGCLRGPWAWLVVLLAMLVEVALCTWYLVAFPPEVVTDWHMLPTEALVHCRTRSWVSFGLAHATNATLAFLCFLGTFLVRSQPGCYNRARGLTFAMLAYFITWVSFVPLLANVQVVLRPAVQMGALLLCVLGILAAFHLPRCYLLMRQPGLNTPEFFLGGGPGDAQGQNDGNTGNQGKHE
Test: Calcium mobilisation assay, TAS1R2 variant R838K with TAS1R3-WT
Assay type: cell-based
Conditions: for Max ΔF/F0: maximal signal amplitude
Text: The coding sequences for TAS1R2 and TAS1R3 were commercially synthesised, and the human codon was optimised for expression in human cells. The coding sequences of human TAS1R2 and TAS1R3 were subcloned and inserted into the mammalian expression vectors pcDNA6/myc-HisA and pcDNA4/myc-HisA (Invitrogen; Thermo Fisher Scientific; Illkirch, France) between the EcoRI and NotI restriction sites, generating the plasmids pcDNA6-TAS1R2 and pcDNA4-TAS1R3, respectively. To increase protein expression in mammalian cells, an upstream start codon was used, which was a sequence called MAX, corresponding to the QBI SP163 element also described in pcDNA4-HisMax (Invitrogen; Thermo Fisher Scientific; Illkirch, France). To measure the expression level of the receptor by immunohistochemistry, we used the FLAG sequence ([…]) in the C-terminal position, which encodes the FLAG tag epitope. SNP variants of TAS1R2 and TAS1R3 were constructed based on […], respectively, using site-directed mutagenesis (Genewiz; Leipzig, Germany).
The HEK293T cells were kindly provided by Jay P. Slack (Givaudan Flavors Corporation; Cincinnati, OH, USA). HEK293T cells stably transfected with Gα16gust44 [43, 67] were seeded in poly-D-lysine-coated clear-bottom black 96-well plates (0.35 × 10^5 cells/well) in high-glucose DMEM supplemented with 2 mM GlutaMAX, 10% dialysed foetal bovine serum with penicillin/streptomycin and G418 (400 μg/mL) at 37 °C and 6.3% CO2 in a humidified atmosphere as previously reported. […] As a negative control, HEK293T cells were mock-transfected with the empty expression vector. After a further 24 h of incubation, the HEK293T cells were washed with C1 buffer (130 mM NaCl, 5 mM KCl, 10 mM HEPES pH 7.4 and 2 mM CaCl2). The 96-well plates containing the cells were then stimulated with sweet-tasting compounds. […] Different concentration ranges were tested depending on the sweet compound injected. The Ca^2+ changes were expressed as fractional changes in fluorescent light intensity: ΔF/F = (F − F0)/F0, where F was the fluorescent light intensity at each point, and F0 was the value of emitted fluorescent light prior to stimulus application. To calculate dose–response relationships, the changes in fluorescence upon stimulus application were averaged, mock-subtracted and baseline-corrected. The dose–response data obtained were adjusted using a 4-parameter logistic equation. The half-maximal effective concentrations (EC50 values) and maximal signal amplitudes were calculated using SigmaPlot software (version 15.0) (Systat Software; San Jose, CA, USA).
For in vitro calcium mobilisation assay performed on hTAS1R2-SNPs, hTAS1R3-SNPs and mTAS1R3-I60T, 6 to 7 concentrations were tested for each sweet compound, plus buffer alone. All concentration–receptor combinations were measured in duplicate, and each experiment was repeated at least 4 times (8 wells/concentration). Results were expressed for each concentration as ΔF/F mean ± SEM and represented as dose–response curves.

Molecule: CC1=CC(=O)NS(=O)(=O)O1 [Acesulfame K, acesulfame K]
EC50: 484 ± 47 µM
R1 = Variant EC50/WT EC50: 0.7
Max ΔF/F0: 0.42 ± 0.02

Molecule: O=S(=O)(O)NC1CCCCC1 [Cyclamate, cyclamate]
EC50: 1730 ± 24 µM

Molecule: C[C@H](CC[C@@H](O[C@@H]1O[C@H](CO[C@@H]2O[C@H](CO)[C@@H](O)[C@H](O)[C@H]2O)[C@@H](O)[C@H](O)[C@H]1O[C@@H]1O[C@H](CO)[C@@H](O)[C@H](O)[C@H]1O)C(C)(C)O)[C@H]1CC[C@@]2(C)[C@@H]3CC=C4[C@@H](CC[C@H](O[C@@H]5O[C@H](CO[C@@H]6O[C@H](CO)[C@@H](O)[C@H](O)[C@H]6O)[C@@H](O)[C@H](O)[C@H]5O)C4(C)C)[C@]3(C)[C@H](O)C[C@]12C [Mogroside V, mogroside V]
EC50: 17.1 ± 0.9 µM
R1 = Variant EC50/WT EC50: 1.0
Max ΔF/F0: 1.31 ± 0.02

Molecule: COc1ccc(CCC(=O)c2c(O)cc(O[C@@H]3O[C@H](CO)[C@@H](O)[C@H](O)[C@H]3O[C@@H]3O[C@@H](C)[C@H](O)[C@@H](O)[C@H]3O)cc2O)cc1O [NHDC, neohesperidin dihydrochalcone]
EC50: 75.8 ± 1.2 µM
R1 = Variant EC50/WT EC50: 1.0
Max ΔF/F0: 0.79 ± 0.05

Molecule: COC(=O)[C@H](Cc1ccccc1)NC(=O)[C@H](CC(=O)O)NCCC(C)(C)C [Neotame]
EC50: 0.66 ± 0.05 µM
R1 = Variant EC50/WT EC50: 0.8
Max ΔF/F0: 0.75 ± 0.02

Molecule: C=C(C)[C@@H]1CC=C(/C=N/O)CC1 [Perillartine, perillartine]
EC50: 19.1 ± 1.2 µM
R1 = Variant EC50/WT EC50: 1.1
Max ΔF/F0: 1.45 ± 0.03

Molecule: C=C1C[C@@]23CC[C@H]4[C@@](C)(CCC[C@@]4(C)C(=O)O[C@@H]4O[C@H](CO)[C@@H](O)[C@H](O[C@@H]5O[C@H](CO)[C@@H](O)[C@H](O)[C@H]5O)[C@H]4O[C@@H]4O[C@H](CO)[C@@H](O)[C@H](O)[C@H]4O)[C@@H]2CC[C@]1(O[C@@H]1O[C@H](CO)[C@@H](O)[C@H](O[C@@H]2O[C@H](CO)[C@@H](O)[C@H](O)[C@H]2O)[C@H]1O[C@@H]1O[C@H](CO)[C@@H](O)[C@H](O)[C@H]1O)C3 [Rebaudioside M, rebaudioside M]
EC50: 18.2 ± 1.1 µM
R1 = Variant EC50/WT EC50: 1.1
Max ΔF/F0: 1.20 ± 0.01

The remaining lines, values ahead:

EC50: 82 ± 6 µM
R1 = Variant EC50/WT EC50: 0.9
Max ΔF/F0: 0.75 ± 0.02
Molecule: OC[C@H]1O[C@H](O[C@]2(CCl)O[C@H](CCl)[C@@H](O)[C@@H]2O)[C@H](O)[C@@H](O)[C@H]1Cl [Sucralose]

R1 = Variant EC50/WT EC50: 1.2
Max ΔF/F0: 1.2 ± 0.03
Molecule: brazzein (QDKCKKVYENYPVSKCQLANQCNYDCKLDKHARSGECFYDEKRNLQCICDYCEY; ends and bridges not checked; cysteine pairing not given here; UniProt P56552 1-54, looked up) [sweet-tasting protein obtained by recombinant production using the yeast Pichia pastoris]

R1 = Variant EC50/WT EC50: 1.4
Max ΔF/F0: 1.3 ± 0.02
Molecule: thaumatin

EC50: 10.4 ± 0.2 µM
B1: thaumatin (protein)
chain: ATFEIVNRCSYTVWAAASKGDAALDAGGRQLNSGESWTINVEPGTKGGKIWARTDCYFDDSGSGICKTGDCGGLLRCKRFGRPPTTLAEFSLNQYGKDYIDISNIKGFNVPMDFSPTTRGCRGVRCAADIVGQCPAKLKAPGGGCNDACTVFQTSEYCCTTGKCGPTEYSRFFKRLCPDAFSYVLDKPTTVTCPGSSNYRVTFCPTA
modifications: Eight disulfides
notes: sweet-tasting plant protein, E957
